Experimental data from publication PMC4102551, “Screening and Characterisation of Antimicrobial Properties of Semisynthetic Betulin Derivatives” (PLoS ONE, 2014).
Converted amounts (≈) assume the structure as drawn. Like-named read-outs stand apart in the source and are kept apart here.

Key:
E. coli ATCC 25922 = assay: Broth microdilution assay, E. coli; assay type: cell-based, Escherichia coli
Procedure, shortened: (§1)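 Broth microdilution per CLSI/EUCAST in Mueller Hinton II broth, 5×10^5 cfu/mL, 24 h at 37°C with agitation; growth by absorbance at 620 nm versus controls. Compounds first screened at 50 µM.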

E. aerogenes ATCC 13048 = assay: Broth microdilution assay, E. aerogenes; assay type: cell-based, Enterobacter aerogenes; settings: for inhibition at 50 µM: Klebsiella aerogenes, ATCC13048, 24 h, read-out: Inhibitory effect (%) E. aerogenes ATCC 13048
Procedure, shortened: as §1

S. aureus ATCC 25923 = assay: Broth microdilution assay, S. aureus; assay type: cell-based, Staphylococcus aureus; settings: for inhibition at 50 µM: ATCC25923, 24 h
Procedure, shortened: as §1

[1] = test system: all microbial strains tested; assay: Primary antimicrobial screening, all strains; assay type: cell-based; settings: 50 µM
Excerpt: Gram-negative strains Escherichia coli (ATCC 25922), Enterobacter aerogenes (ATCC 13048) and Pseudomonas aeruginosa (ATCC 27853), Gram-positive strains Staphylococcus aureus (ATCC 25923) and Enterococcus faecalis (ATCC 29212), and fungal strain Candida albicans (ATCC 90028) were obtained from Microbiologics Inc., and used for the antimicrobial screening. Strains were selected according to the guidelines set for clinical laboratories by Clinical and Laboratory Standards Institute [CLSI, formerly National Committee on Clinical Laboratory Standards [22]] and the European Committee on Antimicrobial Susceptibility Testing (EUCAST). Bacterial strains were grown on Mueller Hinton II Agar (MHA) (BBL, BD) and Mueller Hinton II broth (MHB) (BBL, BD), whereas Candida was initiated on Sabouraud Dextrose Agar (SDA) (Difco, BD) plates. Media were prepared into MilliQ water according to manufacturer’s instruction and autoclaved at 121°C for 15 min. Bacteria were plated on MHA plates and incubated at 37°C for 16–18 h. […] Absorbance was measured at 620 nm with Victor plate reader (Wallac 1420, Perkin Elmer) at 0, 4 and 24 h with the bacteria, and at 0, 24 and 48 h with Candida. The antimicrobial activity of the samples was calculated from the absorbance values by comparing to the controls, and expressed as a percentage inhibition of growth. […]

C. albicans ATCC 90028 = assay: Broth microdilution assay, C. albicans; assay type: cell-based, Candida albicans
Procedure, shortened: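 Candida albicans ATCC 90028 was grown on Sabouraud Dextrose Agar at 27°C for 16–18 h, then suspended in sterile 0.9% saline. Broth microdilution in clear 96-well plates mixed equal volumes of yeast suspension and diluted sample. Plates were incubated with agitation at 35°C for 48 h. Absorbance at 620 nm was read at 0, 24 and 48 h, and growth inhibition was expressed as a percentage relative to controls.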

Huh-7 cells = assay: in vitro; assay type: cell-based, human; settings: for Cytotoxicity (%) Huh-7 cells: 50 µM, 24 h exposure, ATP content, 5% FBS; for Effect on Huh-7 cell monolayer in ATP assay: 100 µM, 24 h
Procedure, shortened: (§2)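 Cytotoxicity read-out: intracellular ATP (CellTiter-Glo luminescence) in Huh-7 hepatoma cells seeded at 20000 cells/well, cultured overnight, then exposed to compounds for 24 h at 37°C in 5% FBS medium. Polymyxin B sulphate (15000 IU/mL) served as positive control.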

P. aeruginosa ATCC 27853 = assay: Broth microdilution assay, P. aeruginosa; assay type: cell-based, Pseudomonas aeruginosa
Procedure, shortened: as §1

E. faecalis ATCC 29212 = assay: Broth microdilution assay, E. faecalis; assay type: cell-based, Enterococcus faecalis; settings: for Inhibitory effect (%) E. faecalis ATCC 29212 / inhibition at 50 µM: 50 µM, 24 h, inhibition of growth, mean ± SD; for inhibition at 50 µM: ATCC29212, 24 h, read-out: Inhibitory effect (%) E. faecalis ATCC 29212
Procedure, shortened: as §1

S. aureus = assay: Effect of BSA on antimicrobial activity (S. aureus microdilution assay); assay type: cell-based, Staphylococcus aureus; settings: compound at MIC90 6.25 µM
Protocol: The effect of bovine serum albumin (BSA) on antimicrobial activity was assessed by using the S. aureus microdilution assay in a similar manner as described above, but with increasing concentrations of BSA, ranging from 0.023 nM to 25 µM [23].
As described above, the antimicrobial activities of betulin derivatives seen in the microdilution assay were not detectable in the host-pathogen co-culture assay. Since the assay was performed in cell culture media containing 7.5% of fetal bovine serum, this was suspected to be the reason. Serum is rich in proteins, the most abundant of these being albumin. First, we performed the normal antibacterial assay by replacing the Mueller Hinton II broth with the cell culture media. […] The activity of compound 5 was clearly affected by the added BSA: at 24 nM concentration the activity was reduced by 50% and at concentration 390 nM the activity was completely lost. As a comparison, the concentration of albumin in human serum is typically 36–48 g/L which corresponds to […] concentration. Albumin is capable of interacting with many organic and inorganic molecules and functions as a key controller of intercellular fluxes [43]–[52]. Majority of therapeutic compounds are reversibly bound to plasma proteins, but the degree and nature of the binding differs. […]

in vitro = assay type: cell-based, human; settings: human, 24 h exposure, 5% FBS; for cytotoxicity at 24 h, 50 µM: ATP content, read-out: Cytotoxicity (%) Huh-7 cells; for IC50 at 24 h: ATP assay, read-out: IC50 cytotoxicity Huh-7 cells
Procedure, shortened: as §2

[2] = test system: S. aureus and E. faecalis; design: method as in PMID 18835348; settings: ref 36; cited from earlier work
[3] = test system: S. aureus, E. coli, B. subtilis and Micrococcus luteus; design: method as in PMID 12601674, PMID 7500642, PMID 8590637; settings: ref 19, 33, 34; cited from earlier work
[4] = test system: B. subtilis, S. aureus, S. pyogenes, Staphylococcus saprophyticus, E. coli, P. aeruginosa and Shigella sonnei; design: method as in PMID 23684720; settings: ref 37; cited from earlier work
[5] = 50 µM, 24 h, inhibition of growth, mean ± SD
[6] = 50 µM, 48 h at 35°C, inhibition of growth, mean ± SD
[7] = Escherichia coli, ATCC25922, 24 h; read-out: Inhibitory effect (%) E. coli ATCC 25922
[8] = Staphylococcus aureus, 50 µM, 24 h, inhibition of growth, mean ± SD, read-out: Inhibitory effect (%) S. aureus ATCC 25923
[9] = Candida albicans, ATCC90028, 48 h; read-out: Inhibitory effect (%) C. albicans ATCC 90028
[10] = Pseudomonas aeruginosa, ATCC27853, 24 h; read-out: Inhibitory effect (%) P. aeruginosa ATCC 27853

With `C=C(C)C1CCC2(COC(C)=O)CCC3(C)C(CCC4C5(C)CCC(=O)C(C)(C)C5CCC43C)C12` (centres unmarked) [Compound 21] the “Inhibitory effect (%) E. coli ATCC 25922” value (E. coli ATCC 25922; [5]) was 2.6±1.8%, the “Inhibitory effect (%) E. aerogenes ATCC 13048” value (E. aerogenes ATCC 13048; [5]) was 12.6±6.2% and the “Inhibitory effect (%) S. aureus ATCC 25923” value (S. aureus ATCC 25923; [5]) was 0.7±3.4%. For the same compound, the “Activity against all microbial strains tested” value [1] was “inactive”, the “Inhibitory effect (%) C. albicans ATCC 90028” value (C. albicans ATCC 90028; [6]) was -13.9±24.7% and the “Cytotoxicity (%) Huh-7 cells” value (Huh-7 cells) was -3.9±1.1%. For the same compound, the “Inhibitory effect (%) P. aeruginosa ATCC 27853” value (P. aeruginosa ATCC 27853; [5]) was 4.7±2.0% and the “Inhibitory effect (%) E. faecalis ATCC 29212” value (E. faecalis ATCC 29212) was 5.7±13.4%.

With `C=C(C)[C@@H]1CC[C@]2(COC(=O)c3ccccc3NC(C)=O)CC[C@]3(C)C(CCC4[C@@]5(C)CC[C@H](O)C(C)(C)C5CC[C@]43C)C12` (some centres unmarked) [Compound 5, 28-O-(N-acetylanthraniloyl)betulin] the inhibition at 50 µM (E. coli ATCC 25922; Escherichia coli, ATCC25922, 24 h, read-out: Inhibitory effect (%) E. coli ATCC 25922) was 0.5 ± 3.1%, the inhibition at 50 µM (E. aerogenes ATCC 13048) was 25.2 ± 2% and the “Inhibitory effect (%) S. aureus ATCC 25923” value (S. aureus ATCC 25923; [5]) was 100.2±0.1%. The inhibition at 50 µM (S. aureus ATCC 25923; Staphylococcus aureus, read-out: Inhibitory effect (%) S. aureus ATCC 25923, 50 µM, 24 h, inhibition of growth, mean ± SD) was greater than 90%, the MIC90 (S. aureus ATCC 25923; Staphylococcus aureus, ATCC25923, read-out: MIC90 against S. aureus) was 6.25 µM (≈ 3.77 µg/mL) and the “BSA concentration at which the activity was completely lost” value (S. aureus) was 390 nM. For the same compound, the “BSA concentration at which the activity was reduced by 50%” value (S. aureus) was 24 nM, the inhibition at 50 µM (C. albicans ATCC 90028; Candida albicans, ATCC90028, 48 h, read-out: Inhibitory effect (%) C. albicans ATCC 90028) was 10 ± 5.2% and the cytotoxicity at 24 h, 50 µM (in vitro) was 30 ± 3%. The IC50 at 24 h (in vitro) was 56 µM, the “Effect on Huh-7 cell monolayer in ATP assay” value (Huh-7 cells) was “completely destroyed the cell monolayer” and the inhibition at 50 µM (P. aeruginosa ATCC 27853; Pseudomonas aeruginosa, ATCC27853, 24 h, read-out: Inhibitory effect (%) P. aeruginosa ATCC 27853) was 12.3 ± 2.3%. The “Inhibitory effect (%) E. faecalis ATCC 29212” value (E. faecalis ATCC 29212) was 98.5±0.2% and the MIC90 (E. faecalis ATCC 29212; Enterococcus faecalis, ATCC29212, read-out: MIC90 against E. faecalis) was 6.25 µM (≈ 3.77 µg/mL).

In the case of `C=C(C)C1CCC2(COC(C)=O)CCC3(C)C(CCC4C5(C)CCC(OC(C)=O)C(C)(C)C5CCC43C)C12` (centres unmarked) [Compound 14], the “Inhibitory effect (%) E. coli ATCC 25922” value (E. coli ATCC 25922; [5]) is reported as -1.8±2.1%, the “Inhibitory effect (%) E. aerogenes ATCC 13048” value (E. aerogenes ATCC 13048; [5]) is reported as 8.1±9.0% and the “Inhibitory effect (%) S. aureus ATCC 25923” value (S. aureus ATCC 25923; [5]) is reported as 13.8±3.2%. For the same compound, the “Activity against all microbial strains tested” value [1] was “inactive”, the “Inhibitory effect (%) C. albicans ATCC 90028” value (C. albicans ATCC 90028; [6]) was -1.1±18.3% and the “Cytotoxicity (%) Huh-7 cells” value (Huh-7 cells) was -11.1±3.8%. The “Inhibitory effect (%) P. aeruginosa ATCC 27853” value (P. aeruginosa ATCC 27853; [5]) was 3.9±0.6% and the “Inhibitory effect (%) E. faecalis ATCC 29212” value (E. faecalis ATCC 29212) was 22.8±17.5%.

For `C[C@H]1[C@H](C)CC[C@]2(C(=O)O)CC[C@]3(C)C(=CC[C@@H]4[C@@]5(C)CC[C@H](O)C(C)(C)[C@@H]5CC[C@]43C)[C@H]12` [UA, ursolic acid], the “MIC against S. aureus and E. faecalis” value [2] is given as 4 to 8 µg/mL.

In the case of `C=C(C)[C@@H]1CC[C@]2(C(=O)O)CC[C@]3(C)[C@H](CC[C@@H]4[C@@]5(C)CC[C@H](O)C(C)(C)[C@@H]5CC[C@]43C)[C@@H]12` [Compound 19, betulinic acid], the inhibition at 50 µM (E. coli ATCC 25922; [7]) is reported as 20.2 ± 6.1%, the “Inhibitory effect (%) E. aerogenes ATCC 13048” value (E. aerogenes ATCC 13048; [5]) is reported as 38.2±3.0% and the inhibition at 50 µM (E. aerogenes ATCC 13048; [5]) is reported as 38%. For the same compound, the inhibition at 50 µM (S. aureus ATCC 25923; [8]) was 22.8 ± 5.4%, the “Activity against S. aureus, E. coli, B. subtilis and Micrococcus luteus” value [3] was “inactive” and the “Inhibitory effect (%) C. albicans ATCC 90028” value (C. albicans ATCC 90028; [6]) was “inactive”. The inhibition at 50 µM (C. albicans ATCC 90028; [9]) was 21.6 ± 2.6%, the “MIC against S. aureus and E. faecalis” value [2] was greater than 256 µg/mL and the cytotoxicity at 24 h, 50 µM (in vitro; Huh-7 cells) was 30%. For the same compound, the “Cytotoxicity (%) Huh-7 cells” value (Huh-7 cells) was 31.6±15.7%, the inhibition at 50 µM (P. aeruginosa ATCC 27853; [10]) was 6.7 ± 1.4% and the “Inhibitory effect (%) E. faecalis ATCC 29212” value (E. faecalis ATCC 29212) was 55.9±5.0%. For the same compound, the inhibition at 50 µM (E. faecalis ATCC 29212; Enterococcus faecalis) was 56%.

In the case of `CC1(C)C=C2[C@H]3CC[C@@H]4[C@@]5(C)CC[C@H](O)C(C)(C)[C@@H]5CC[C@@]4(C)[C@]3(C)CC[C@@]2(C(=O)O)CC1` [MA, morolic acid], the “MIC against a panel of seven different bacterial species” value [4] is given as no less than 100 µg/mL.

In the case of `CCn1c(=O)n2n(c1=O)C1(C(C)C)CCC3(COC(C)=O)CCC4(C)C(=C31)C2CC1C2(C)CCC(OC(C)=O)C(C)(C)C2CCC14C` (centres unmarked) [Compound 43], the inhibition at 50 µM (E. coli ATCC 25922; [7]) is reported as -3.7%, the inhibition at 50 µM (E. aerogenes ATCC 13048; [5]) is reported as 18.5 ± 2.2% and the inhibition at 50 µM (S. aureus ATCC 25923; [8]) is reported as 2.9 ± 0.7%. It also gave an inhibition at 50 µM (C. albicans ATCC 90028; [9]) of -9.7%, a cytotoxicity at 24 h, 50 µM (in vitro) of 85% and an IC50 at 24 h (in vitro) of 16 µM. For the same compound, the “Cytotoxicity (%) Huh-7 cells” value (Huh-7 cells) was 86.0±2.0%, the “Effect on Huh-7 cell monolayer in ATP assay” value (Huh-7 cells) was “completely destroyed the cell monolayer” and the inhibition at 50 µM (P. aeruginosa ATCC 27853; [10]) was 1.7 ± 1.7%. The inhibition at 50 µM (E. faecalis ATCC 29212; Enterococcus faecalis) was 57.1 ± 4.4%.

In the case of `CC1(C)CC[C@]2(C(=O)O)CC[C@]3(C)C(=CC[C@@H]4[C@@]5(C)CC[C@H](O)C(C)(C)[C@@H]5CC[C@]43C)[C@@H]2C1` [OA, oleanolic acid], the “MIC against S. aureus and E. faecalis” value [2] is given as 8 to 64 µg/mL.
